Drawing on patent publication US10000500B2 (PROMEGA CORPORATION, priority 2016, dated 2018), this text covers Km for one molecule.

This test addresses NANOLUC® Luciferase (Oplophorus gracilirostris, UniProt Q9GV45, A31E/A60N/A81I/F95D/I117V/K70R/L54V/L99Q/M102K/N193R/P142E/Q151K/Q38R/Q45L/V71I/Y165I). Description: Km and Vmax substrate titration with NanoLuc luciferase (Example 8). In kind it is biochemical. The conditions noted are these: NanoLuc 4 ng/ml; Renilla Glo buffer; Michaelis-Menten fit. The protocol:
Each compound to be screened was diluted to a concentration of 100 uM in Renilla Glo Luciferase Assay buffer (Promega Corporation) and then further diluted to 2×serial dilution in Renilla Glo Luciferase Assay Buffer. NANOLUC® luciferase and Renilla luciferase were diluted to a concentration of 4 ng/ml in OptiMEM+0.1% FBS. 50 ul of each compound dilution was then mixed with 50 ul of each enzyme dilution and incubated for 1 minute at room temperature. Light output for each compound was measured on a GLOMAX®-Multi+ luminometer. Km and Vmax were calculated for each enzyme/substrate combination using a GraphPad Prism Michaelis-Menten non-linear fit (FIGS. 1A-ID).

Chain of NANOLUC® Luciferase (Q9GV45 28-196 with tags or gaps with the stated changes limits assumed): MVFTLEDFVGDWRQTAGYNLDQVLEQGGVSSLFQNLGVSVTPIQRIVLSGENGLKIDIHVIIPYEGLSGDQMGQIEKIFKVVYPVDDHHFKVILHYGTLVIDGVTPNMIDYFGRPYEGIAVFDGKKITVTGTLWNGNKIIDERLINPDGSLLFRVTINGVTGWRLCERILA

In the case of `O=c1c(Cc2ccco2)nc2c(Cc3ccccc3)[nH]c(-c3ccccc3)cn1-2` [Furimazine, 8-benzyl-2-(furan-2-ylmethyl)-6-phenylimidazo[1,2-a]pyrazin-3(7H)-one], the Km was determined as 9.37 µM.

For orientation: Km means the substrate concentration at which the rate is half of its maximum.
